Data from patent publication US7288567B2, “Inhibitors of histone deacetylase” (Methylgene Inc., priority 2000, dated 2007).
Read-outs that look alike come from different tables or passages of the source.

Tests used:
[1] = test system: acetylated histone H-4 in T24 human bladder cancer cells; assay: Histone H4 acetylation in whole cells by immunoblots; format: cell-based
Experimental: T24 human bladder cancer cells growing in culture were incubated with HDAC inhibitors for 16 hours. Histones were extracted from the cells after the culture period as described by M. Yoshida et al. (J. Biol. Chem. 265(28): 17174-17179 (1990)). 20 μg of total histone protein was loaded onto SDS/PAGE and transferred to nitrocellulose membranes. Membranes were probed with polyclonal antibodies specific for acetylated histone H-4 (Upstate Biotech Inc.), followed by horse radish peroxidase conjugated secondary antibodies (Sigma). Enhanced Chemiluminescence (ECL) (Amersham) detection was performed using Kodak films (Eastman Kodak). Acetylated H-4 signal was quantified by densitometry.

[2] = target: T1, recombinant human HDAC-1 enzyme (rHDAC-1) (Homo sapiens, UniProt Q13547); assay: Histone deacetylase inhibition, recombinant human HDAC-1; format: biochemical; settings: cloned recombinant human HDAC-1, Baculovirus insect cell expression; read-out: rHDAC-1 IC50
T1 construct: made in house; host or cells: Baculovirus insect cell expression system
How it was run: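 Recombinant human HDAC-1 or pooled HDACs from H446 nuclear extracts were preincubated with compounds for 30 min at 4 °C before the reaction. Released [3H]-acetic acid was extracted with ethyl acetate after acid stop and counted by scintillation. IC50 was the concentration giving half-maximal inhibition from dose-response curves.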

[3] = test system: histone deacetylase enzyme in nuclear extracts from H446 cells (pooled HDACs); assay: Histone deacetylase inhibition, H446 nuclear extracts (pooled HDACs); format: biochemical, human; settings: for IC50: H446 nuclear extract, [3H]-acetylated histone substrate; for pooled HDACs percent inhibition: percent inhibition at 20 μM (footnote)
Experimental: HDAC inhibitors were screened against histone deacetylase enzyme in nuclear extracts prepared from the human small cell lung cancer cell line H446 (ATTC HTB-171) and against a cloned recombinant human HDAC-1 enzyme expressed and purified from a Baculovirus insect cell expression system.
For deacetylase assays, 20,000 cpm of the [^3H]-metabolically labeled acetylated histone substrate (M. Yoshida et al., J. Biol. Chem. 265(28): 17174-17179 (1990)) was incubated with 30 μg of H446 nuclear extract or an equivalent amount of the cloned recombinant hHDAC-1 for 10 minutes at 37° C. The reaction was stopped by adding acetic acid (0.04 M, final concentration) and HCl (250 mM, final concentration). The mixture was extracted with ethyl acetate and the released [^3H]-acetic acid was quantified by scintillation counting. For inhibition studies, the enzyme was preincubated with compounds at 4° C. for 30 minutes prior to initiation of the enzymatic assay. IC50 values for HDAC enzyme inhibitors were determined by performing dose response curves with individual compounds and determining the concentration of inhibitor producing fifty percent of the maximal inhibition.

[4] = test system: tumors; settings: Finnin et al. 1999; cited from earlier work
[5] = test system: HDAC; settings: Richon et al. 1998; cited from earlier work
[6] = test system: cell growth; settings: Finnin et al. 1999; cited from earlier work
[7] = T-24, read-out: EC50, concentration effective for reducing the acetylated H-4 signal by 50%, T24 cells, 16 hours incubation, immunoblot densitometry

T1 sequence (Q13547 whole entry): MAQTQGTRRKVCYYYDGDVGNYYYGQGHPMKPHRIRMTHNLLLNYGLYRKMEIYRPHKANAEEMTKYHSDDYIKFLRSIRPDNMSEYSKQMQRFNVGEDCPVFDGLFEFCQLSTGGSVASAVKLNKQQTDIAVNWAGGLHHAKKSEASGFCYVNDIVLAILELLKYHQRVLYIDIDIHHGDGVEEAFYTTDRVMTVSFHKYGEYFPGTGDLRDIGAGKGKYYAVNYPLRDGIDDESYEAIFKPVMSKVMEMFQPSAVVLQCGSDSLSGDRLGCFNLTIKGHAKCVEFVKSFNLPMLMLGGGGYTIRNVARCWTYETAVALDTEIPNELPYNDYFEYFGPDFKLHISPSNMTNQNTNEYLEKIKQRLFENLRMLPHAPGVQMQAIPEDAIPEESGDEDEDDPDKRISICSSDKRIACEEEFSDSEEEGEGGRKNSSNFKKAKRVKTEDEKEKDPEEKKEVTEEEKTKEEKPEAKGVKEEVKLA

SMILES	EC50 [1, 7] [nM]	IC50 [2] [nM]	IC50 [3] [nM]	further results
Nc1ccccc1NC(=O)CCCCCCC(=NO)c1cccc(-c2ccccc2)c1 (mixture of isomers) [Compound 134, N-(2-Aminophenyl)-8-(E)-oximino-8-(3-biphenyl)octanamide]	10000	1000		
COc1ccc(C(C/C=C/C=C/C(=O)Nc2ccccc2N)OC)cc1 (stereo not shown) [Compound 18, N-(2-Aminophenyl)-7-methoxy-7-(4-methoxyphenyl)-2,4-heptadienamide]	10000	1000	> 100000	
COC(C/C=C/C=C/C(=O)Nc1ccccc1N)c1ccc(N(C)C)cc1 (stereo not shown) [Compound 20, N-(2-Aminophenyl)-7-methoxy-7-[4-(N,N-dimethylamino)phenyl]-2,4-heptadienamide]	5000	3000	> 20000	
CC(/C=C/C(=O)Nc1ccccc1N)=C\C(C)C(=O)c1ccc(N(C)C)cc1 (stereo not shown) [Compound 35, N-(2-Aminophenyl)-4-methyl-6-[4-(N,N-dimethylamino)benzoyl]-2,4-heptadienamide]	5000	2000	> 100000	
CC(/C=C/C(=O)Nc1ccccc1N)=C\C(C)Cc1ccc(N(C)C)cc1 (stereo not shown) [Compound 39]	10000	7000	> 20000	
Nc1ccccc1NC(=O)CCCCCCC(=O)c1ccc(-c2ccccc2)cc1 [Compound 77, N-(2-Aminophenyl)-7-[(4-biphenyl)carbonyl]heptanamide]	10000	1900		pooled HDACs percent inhibition [3]: 11%
COc1ccc(-c2ccc(C(=O)CCCCCCC(=O)NO)cc2)cc1 [Compound 120, N-Hydroxy-7-[4-(4-methoxyphenyl)benzoyl]heptanamide]	10000	2		pooled HDACs percent inhibition [3]: 83%
O=C(CCCCCCC(=O)c1ccc(N2CCN(c3ccccc3)CC2)cc1)NO [Compound 138g, N-Hydroxy-7-[4-(1-(4-phenylpiperazinyl))benzoyl]heptanamide]	5000	6	51	
O=C(CCCCCCC(=O)c1ccc(-c2ccccc2)nc1)NO [Compound 145, N-Hydroxy-7-[(5-(2-phenyl)pyridyl)carbonyl]heptanamide]	10000	8		
Nc1ccccc1NC(=O)CCCCCCC(=O)c1ccc(-c2ccccc2)nc1 [Compound 146, N-(2-Aminophenyl)-7-[(5-(2-phenyl)pyridyl)carbonyl]heptanamide]	5000	2000		
COc1ccc(-c2ccc(C(=O)CCCCCCC(=O)Nc3ccccc3N)cn2)cc1OC [Compound 151, N-(2-Aminophenyl)-7-[5-(2-(3,4-dimethoxyphenyl)pyridyl)carbonyl]heptanamide]	3000	4000		
CSCC(=O)CCCCCCC(=O)c1ccccc1 [Compound 159b, 1-Methylthio-2,9-dioxo-9-phenyl-nonane]		500		pooled HDACs percent inhibition @ 5 μM [3]: 14%@ 5 μM
O=C(CCCCCCC(=O)c1ccccc1)CSCc1ccccc1 [Compound 159c, 1-Benzylthio-2,9-dioxo-9-phenyl-nonane]		5000		pooled HDACs percent inhibition @ 5 μM [3]: 0%@ 5 μM
O=C(CCCCCCC(=O)c1ccccc1)CSc1ccccc1 [Compound 159d, 1-Phenylthio-2,9-dioxo-9-phenyl-nonane]		5000	50000	
O=C(CS)CCCCCCC(=O)c1ccccc1 [Compound 159e, 1-Mercapto-2,9-dioxo-9-phenyl-nonane]		50	50	
O=C(CCCCCCC(=O)c1ccccc1)CSC(=O)c1ccccc1 [Compound 159f, 1-Benzoylthio-2,9-dioxo-9-phenyl-nonane]		700	350	
CC(=O)SCC(=O)CCCCCC(=O)c1cc2ccccc2s1 [Compound 160, 1-Acetylthio-2,8dioxo-8-(2-benzo[b]thiophene)-octane]		130	80	
O=C(CS)CCCCCC(=O)c1cc2ccccc2s1 [Compound 161, 1-Mercapto-2,8-dioxo-8-(2-benzo[b]thiophene)-octane]		71	94	
CC(=O)SCC(=O)CCCCCCC(=O)c1cc2ccccc2s1 [Compound 162, 1-Acetylthio-2,9-dioxo-9-(2-benzo[b]thiophene)-nonane]		35	40	

SMILES	EC50 [1, 7] [nM]	IC50 [2] [nM]	IC50 [3] [nM]	further results
O=C(CS)CCCCCCC(=O)c1cc2ccccc2s1 [Compound 163, 1-Mercapto-2,9-dioxo-9-(2-benzo[b]thiophene)-nonane]		10	40	
Nc1ccccc1NC(=O)CCCCCCC(=O)c1cc2ccccc2s1 [Compound 164, N-(2-Aminophenyl)-7-[(2-benzo[b]thiophene)carbonyl]heptanamide]		2300		pooled HDACs percent inhibition [3]: 18%
CC(=O)SCC(=O)CCCCCCC(=O)c1cc2ccccc2n1C [Compound 165, 1-Acetylthio-2,9-dioxo-9-(2-(N-methyl)indolyl)-nonane]		90	40	
Cn1c(C(=O)CCCCCCC(=O)CS)cc2ccccc21 [Compound 166, 1-Mercapto-2,9-dioxo-9-(2-N-methylindolyl)-nonane]		420	50	
CC(=O)SCC(=O)CCCCCCC(=O)c1cc2ccccc2[nH]1 [Compound 167, 1-Acetylthio-2,9-dioxo-9-(2-indolyl)-nonane]		400	300	
CC(CCCCC(=O)c1ccc2ccccc2c1)CC(=O)NO (stereo not shown) [Compound 199, N-Hydroxy-3-methyl-7-(2-naphthoyl)heptanamide]		30	80	
Nc1ccccc1NC(=O)/C=C/C=C/CCC(=O)c1ccc(-c2ccccc2)cc1 [Compound 204, (E,E)-N-(2-Aminophenyl)-7-[(4-biphenyl)carbonyl]-2,4-heptadienamide]	15000	5000		
O=C(/C=C/C=C/CCC(=O)c1ccc(-c2ccccc2)cc1)NO [Compound 205, (E,E)-N-Hydroxy-7-[(4-biphenyl)carbonyl]-2,4-heptadienamide]	3000	40		
O=C(CCCCCCOc1ccc(-c2ccccc2)cc1)NO [Compound 235, N-Hydroxy-7-(4-biphenyloxy)heptanamide]				EC50 ([1]; T-24, 16 h, read-out: EC50, concentration effective for reducing the acetylated H-4 signal by 50%): 5000 nM
O=C(CCCCCn1cnc2ccccc2c1=O)NO [Compound 238a, N-Hydroxy-6-[3-(4-Oxo-4H-quinazolinyl)]hexanamide]		50		pooled HDACs percent inhibition @ 1 μM [3]: 0%@ 1 μM
O=C(CCCCCn1nnc2ccccc2c1=O)NO [Compound 238b, N-Hydroxy-6-[3-(4-oxo-4H-benzo[d][1,2,3]triazinyl)]hexanamide]		760		pooled HDACs percent inhibition @ 1 μM [3]: 20%@ 1 μM
Nc1ccccc1NC(=O)CCCCCn1nnc2ccccc2c1=O [Compound 239b]		8100		pooled HDACs percent inhibition [3]: 14%
Nc1ccccc1NC(=O)CCCCCN1C(=O)c2ccccc2C1=O [Compound 243a, N-(2-Aminophenyl)-6-(N-phthaloyl)hexanamide]		1600		pooled HDACs percent inhibition [3]: 6%
Cc1ccc2c(c1)C(=O)N(CCCCCC(=O)Nc1ccccc1N)C2=O [Compound 243d, N-(2-Aminophenyl)-6-(5-methyl-N-phthaloyl)hexanamide]	3000	3000		
Nc1ccccc1NC(=O)CCCCCN1C(=O)c2cccc3c(CN4CCCCC4)c(O)cc(c23)C1=O [Compound 251c, N-(2-Aminophenyl)-6-[2-(5-hydroxy-1,3-dioxo-6-(1-methylpiperidynyl)-1H,3H-benzo[de]isoquinolinyl)]-hexanamide]	1000	2000		
O=C(CCCCCCC(=O)c1ccccc1)Nc1cccnc1 [Compound 252]		> 20000		pooled HDACs percent inhibition [3]: 0%
O=C(NCCCCCCC(=O)c1ccccc1)Nc1ccccc1O [Compound 253]		> 20000		pooled HDACs percent inhibition [3]: 0%
O=C(CCCCCCC(=O)Nc1ccccc1)NO [SAHA, suberoylanilide hydroxamic acid]				formation of tumors in mice [4]: prevent the formation of tumors in mice; HDAC activity [5]: inhibited; cell growth [6]: inhibit cell growth; terminal differentiation [6]: induce terminal differentiation
